Assay results as given in US20240002405A1, “ANTIMICROBIAL COMPOUNDS, SYNTHESIS METHODS, AND USES THEREOF” (Ankh Life Sciences Limited, priority 2022, published 2024).
In brackets after ≈: the same amount, converted by molar mass. Several values for one entry are separate records, joined by “and”; a condition that tells them apart may be missing. Identical values can stand only once. Counter-ions that a name gives are not always drawn. Like-named read-outs stand apart in the source and are kept apart here.

Tests used:
[1] = tested on: gram positive and negative bacteria; experiment: Antibacterial testing against gram positive and negative bacteria; type: cell-based
Method: In addition to the harmaline dimers compounds, other bicyclic indole compounds (203, 233, 476/6 and 504/6,) were also tested against gram positive and negative bacteria. Particularly, the indole ethyl urea molecules 203, 233 and the tryptamide dimer molecules 476/6, 504/6, as shown below, were tested.

[2] = tested on: E. coli (ATCC 25922); experiment: Broth microdilution MIC assay, E. coli; details: for MIC: Escherichia coli
Method: (§2) The concentration of compound required to visibly stop the growth of bacteria is known as minimum inhibitory concentration (MIC). Different concentrations of the compounds are tested for the exact same number of bacteria, and the growth is monitored with time.
(§3) Bacterial strains were purchased from the American Type Culture Collection (ATCC) for the studies.
(§4) The MIC assay procedure follows the guidelines set by the Clinical Laboratory Sciences Institute (CLSI).
(§5) To do this, bacteria were transferred from pure agar culture, aseptically transferred in 5 mL of Cation-Adjusted Mueller-Hinton Broth (CAMHB). The broth was incubated overnight at 35° C. to stationary phase to achieve a turbidity suspension. A spectrophotometer (SpectraMax ID5) was used to measure the turbidity (optical density—OD at 625 nm). The inoculum was prepared by adjusting the turbidity of overnight culture to 0.5 McFarland, which is equal to the defined number of bacteria 1×10^8 CFU/ml.
(§6) (b) Compound Dilution: All compounds used in the study were dissolved in sterile ultra-pure DMSO (VWR International, PA, USA) and maintained at −80° C. Stock solution of the compound was freshly prepared the day of use or is prepared from a frozen stock solution stored at −80° C. […] The compound solution was prepared at a desired concentration in DMSO, and 1/10 dilution was performed in a sterile CAMHB medium. This 10-fold dilution of stock solution was used for a 2-fold serial dilution in a 96-well plate to observe an inhibitory effect of the compound on bacterial growth. 100 μL of diluted drug solution was transferred to a first column of the 96-well plate. 50 μL of sterile CAMHB was transferred to each well from well 2 to well 12. Next, 50 μL was removed from well 1 and added to well 2. The contents from well 2 were mixed by pipetting up and down. Next, 50 µL were removed from well 2 and added to well 3. This process was continued till well 11 is reached. 50 μL was discarded from the well 11. Each compound concentration was tested in triplicate.
(§7) (c) Inoculation of 96-well plate: The same number of bacteria (1×10^5 CFU/mL) were prepared after 150-fold dilution of 0.5 McFarland inoculum and used to add in the wells of different drug concentrations. 50 μL of working inoculum was carefully added to each well, except the sterility well 12. Mixing is performed by gently flushing the inoculum in and out of the pipette tip four or five times, avoiding splashing and bubble formation.
(§8) (d) Incubation: Plates were incubated at 35° C. for 24 hours without shaking or agitation.
(§9) (e) Determination of MIC: After 18-24 hours of incubation, the plates were read for MIC. SpectraMax iD5 microplate reader was used to measure turbidity at different time points. Turbidity (OD) increases as the bacteria grow over time.

[3] = tested on: S. aureus (ATCC 29213); experiment: Broth microdilution MIC assay, S. aureus; details: for MIC: Staphylococcus aureus; for concentration at which activity is shown / MIC (bacterial growth inhibition): S. aureus
Method: as §2, §3, §4, §5, §6, §7, §8, §9

[4] = tested on: Candida albicans (ATCC 18804); experiment: Antifungal broth microdilution MIC assay; type: cell-based; details: for MIC: Candida albicans, ATCC18804, C. albicans, read-out: MIC (antifungal growth inhibition)
Method: Synthesized compounds were tested for antifungal activity towards the fungus strain, Candida albicans. […] Different concentrations of the compounds were tested for the exact same number of fungi, and the growth is monitored with time. MIC was determined by using the broth microdilution assay. Fungus strain, C. albicans was purchased from ATCC (ID: 18804) for the studies. […] This solution was used to make a working solution by preparing a 1:50 dilution, followed by a 1:20 dilution, with RPMI 1640 medium to obtain 2× test inoculum. The 2× inoculum is diluted 1:1 to achieve the final inoculum size (0.5×10^3 to 2.5×10^3 cells per mL). RPMI 1640 medium was used with L-glutamine and phenol red as a pH indicator but without bicarbonate and a glucose concentration of 0.2%. […] All plates were then read visually under normal laboratory lighting using a mirror viewer. Wells were scored for the growth compared to that of the drug free control well. Plates were read at 530 nm with subtraction of the blank from the reading of each well. Turbidity (OD) increases as the fungus grows over time.

[5] = tested on: S. aureus (ATCC 29213); experiment: Minimum bactericidal concentration (MBC) assay, S. aureus; type: cell-based; details: Staphylococcus aureus, ATCC29213, 24 h, read-out: MBC (kills bacteria)
Method: (§1) (f) Determination of MBC: MBC was determined by sampling all the macroscopically clear wells. Before sampling, the wells were gently mixed by flushing them with a pipette, and a 5 μL was removed and placed on an agar plate suitable for the growth of the microbe being tested. The agar plate was divided into three parts to test three trials of a single concentration. The sample was allowed to be absorbed into the agar for ˜30 minutes. The plates were then incubated for 24 hours at 37° C. After incubation, the plates were examined to determine the compound concentration at which 99.9% killing was achieved.

[6] = tested on: MRSA: S. aureus resistant to methicillin and oxacillin (ATCC 43300); experiment: Broth microdilution MIC assay, MRSA; details: for MIC: Staphylococcus aureus, ATCC43300|MRSA, read-out: MIC (bacterial growth inhibition)
Method: as §2, §3, §4, §5, §6, §7, §8, §9

[7] = tested on: MRSA (ATCC 43300); experiment: Minimum bactericidal concentration (MBC) assay, MRSA; type: cell-based; details: Staphylococcus aureus
Method: as §1

[8] = tested on: E. faecalis (ATCC 29212); experiment: Broth microdilution MIC assay, E. faecalis; details: Enterococcus faecalis, ATCC29212, read-out: MIC (bacterial growth inhibition)
Method: as §2, §3, §4, §5, §6, §7, §8, §9

[9] = tested on: VREF: E. faecalis resistant to vancomycin (ATCC 51299); experiment: Broth microdilution MIC assay, VREF; details: Enterococcus faecalis, ATCC51299, read-out: MIC (bacterial growth inhibition)
Method: as §2, §3, §4, §5, §6, §7, §8, §9

[10] = tested on: engineered Salmonella typhimurium strain (umuC, β-galactosidase)
Source text: The EBPI UMU-ChromoTest™ assay is used for the detection and quantification of genotoxicity of compounds and is based on the International Organization for Standardization protocol ISO 13829. The UMU-ChromoTest™ assay utilizes a native bacterial mechanism for the detection of compound genotoxicity. The bacteria used for the assay is an engineered Salmonella typhimurium strain developed to include a gene coding for the β-galactosidase (β-gal) enzyme tethered to the umuC, a damage response gene. DNA damage activates the SOS system to transcribe β-gal proportional to the level of SOS induction. The UMU-ChromoTest™ bacterial strain has modifications to increase sensitivity to genotoxins with (a) increased sensitivity for even limited damage, (b) modified outer membrane of the cell to increase permeability to exogenous materials, and (c) production of a color change on addition to chromogenic substrate (ONPG), which is a quantitative measure of genotoxic damage to bacterial DNA.
Rehydration of Dried Bacteria and Culture Growth: The bacteria were rehydrated and incubated at 37° C. for 16-18 hours. OD600 of the overnight culture should be 0.5 or at least above 0.1 at 600 nm.
Sample Preparation and Plate Setup: The dimer compounds were dissolved in DMSO. All dilution and controls were made in the solvent of 10% DMSO in sterile 0.85% saline. The pH of the compounds was adjusted to 7.0±0.2 before incubation with bacteria to facilitate bacterial growth and prevent degradation of ONPG later in the assay. The solutions of hydrochloric acid and sodium hydroxide were used to adjust pH with minimal addition volumes to prevent excessive sample dilution. Six samples were run at 4 dilutions at a time.
Preliminary Dilution of Bacteria: The overnight bacterial culture was diluted to 50% by performing a reinoculation with 5 mL of overnight growth and 5 mL of fresh Growth media. The reinoculated bacteria was inoculated for 1.5 hours at 37° C. The OD600 should be approximately 80% of the reading from overnight growth or slightly higher.
Preparation of Plate A: Distilled water (180 μL) was added to all wells, except for rows A to F, columns 1 to 3 and row H, columns 1 to 6. Rows A to F are used for 6 compounds per plate. The test compounds (360 μL) were added to the first three wells (three replicates) of the same microplate, such that wells 1-3 were a triplicate set of the highest concertation of test compound (360 μL). Wells 4-12 each contained 180 μL of distilled water. For dilution, half of the contents (180 μL) from wells 1-3 was transferred to wells 4-6 which makes a second triplicate set. For a third dilution, half of the contents from wells 4-6 were transferred to 7-9, and for the fourth triplicate set, half of the contents from wells 7-9 was transferred to 10-12. […]

[11] = tested on: E. faecalis (ATCC 29212); experiment: Minimum bactericidal concentration (MBC) assay, E. faecalis; type: cell-based, Enterococcus faecalis
Method: as §1

[12] = tested on: VREF (ATCC 51299); experiment: Minimum bactericidal concentration (MBC) assay, VREF; type: cell-based, Enterococcus faecalis; details: Enterococcus faecalis, ATCC51299, read-out: MBC (bactericidal activity)
Method: as §1

[13] = ATCC29213, read-out: MIC (bacterial growth inhibition), S. aureus, time not given
[14] = ATCC29213, 24 h, read-out: MIC (bacterial growth inhibition), S. aureus, up to 24 hours
[15] = ATCC25922, read-out: MIC (bacterial growth inhibition), E. coli
[16] = ATCC29213, read-out: MIC (bacterial growth inhibition)

SMILES: COc1ccc2c(CCNC(=O)CCCC(=O)NCCc3c[nH]c4cc(OC)ccc34)c[nH]c2c1 [476/6]
- bacteriostatic/bactericidal activity [1]: no bacteriostatic/bactericidal activity observed

SMILES: COc1ccc2c(CCNC(=O)CC(C)(C)CC(=O)NCCc3c[nH]c4cc(OC)ccc34)c[nH]c2c1 [504/6]
- bacteriostatic/bactericidal activity [1]: no bacteriostatic/bactericidal activity observed

SMILES: NC(=O)NCCc1c[nH]c2ccccc12 [Compound 203]
- bacteriostatic/bactericidal activity [1]: no bacteriostatic/bactericidal activity observed

SMILES: COc1ccc2[nH]cc(CCNC(N)=O)c2c1 [Compound 233]
- bacteriostatic/bactericidal activity [1]: no bacteriostatic/bactericidal activity observed

SMILES: COc1ccc2c3c([nH]c2c1)C(/C=C/c1ccccc1N)=NCC3 [GK317]
- MIC (bacterial growth inhibition) ([2]; E. coli): didn't show any activity
- MIC [3, 13]: 100 µg/mL (≈ 315 µM)

SMILES: COc1ccc2c3c([nH]c2c1)C(/C=C/c1cc(Cl)ccc1N)=NCC3 [GK350]
- concentration showing ~50% growth inhibition ([2]; E. coli): 1.5 µg/mL
- MIC [3, 13]: 25 µg/mL (≈ 71.1 µM)

SMILES: COc1ccc2c3c([nH]c2c1)C(/C=C/c1cc(C(=O)O)ccc1N)=NCC3 [GK360]
- MIC ([4]; after 24 hours of incubation): 50 µg/mL (≈ 138 µM)
- concentration showing ~50% growth inhibition ([2]; E. coli): 0.78 µg/mL
- MIC [3, 13]: 12.5 µg/mL (≈ 34.6 µM)

SMILES: COc1ccc2c3c([nH]c2c1)C(/C=C/c1cc(Br)ccc1N)=NCC3 [GK395]
- MIC ([4]; after 48 hours of incubation): 50 µg/mL (≈ 126 µM)
- concentration showing ~50% growth inhibition ([2]; E. coli): 3.5 µg/mL
- MIC [3, 13]: 25 µg/mL (≈ 63.1 µM)

SMILES: COc1ccc2c3c([nH]c2c1)C(CC(CC1=NCCc2c1[nH]c1cc(OC)ccc21)C1CC1)=NCC3 [GK480]
- concentration at which activity is shown ([2]; E. coli): 50 µg/mL
- concentration at which activity is shown [3]: 3.25 µg/mL

SMILES: COc1ccc2c3c([nH]c2c1)C(CC(CC1=NCCc2c1[nH]c1cc(OC)ccc21)c1ccccn1)=NCC3 [GK517.2]
- MBC ([5]; S. aureus): > 129 µg/mL
- MIC (bacterial growth inhibition) ([2]; E. coli): no activity was observed
- MIC ([6]; 24 h): 64.7 µg/mL (≈ 125 µM)
- MIC [3, 14]: 64.7 µg/mL (≈ 125 µM)
- MBC ([7]; MRSA, read-out: MBC): > 129 µg/mL
- MBC ([7]; MRSA, read-out: MRSA-MBC): > 250 µM

SMILES: COc1ccc2c3c([nH]c2c1)C(CC(CC1=NCCc2c1[nH]c1cc(OC)ccc21)c1ccncc1)=NCC3 [GK517.4]
- MBC ([5]; S. aureus): 64.7 µg/mL (≈ 125 µM)
- MIC (bacterial growth inhibition) ([2]; E. coli): no activity was observed
- MIC ([6]; 24 h): 64.7 µg/mL (≈ 125 µM)
- MIC [3, 14]: 64.7 µg/mL (≈ 125 µM)
- MBC ([7]; MRSA, read-out: MBC): > 129 µg/mL
- MBC ([7]; MRSA, read-out: MRSA-MBC): > 250 µM

SMILES: COc1ccc2c3c([nH]c2c1)C(/C=C\c1cc(Br)ccc1/N=C/c1cc(Br)ccc1N)=NCC3 [GK578, 4-bromo-2-((E)-((4-bromo-2-((Z)-2-(7-methoxy-4,9-dihydro-3H-pyrido[3,4-b]indol-1-yl)vinyl)phenyl)imino)methyl)aniline]
- concentration showing significant reduction in growth ([2]; E. coli): 3.12 µg/mL
- inhibition in growth ([2]; incubated with E. coli for 10-75 hrs): 50%

SMILES: COc1ccc2c3c([nH]c2c1)C(CC(CC1=NCCc2c1[nH]c1cc(OC)ccc21)c1c[nH]c2ccc(C#N)cc12)=NCC3 [GK580, 3-(1,3-bis(7-methoxy-4,9-dihydro-3H-pyrido[3,4-b]indol-1-yl)propan-2-yl)-1H-indole-5-carbonitrile]
- MBC ([5]; S. aureus): 11 µg/mL (≈ 18.9 µM)
- MIC [8]: 44 µg/mL (≈ 75.8 µM)
- MIC [9]: > 88 µg/mL
- MIC ([4]; after 24 hours of incubation): 12.2 µg/mL (≈ 21.1 µM)
- MIC ([4]; after 48 hours of incubation): 12.2 µg/mL (≈ 21.1 µM)
- concentration inhibiting fungal growth ([4]; time not stated): 12.5 µg/mL
- MIC [2, 15]: 12.5 µg/mL (≈ 21.5 µM)
- genotoxic concentration (no genotoxicity up to) ([10]; S9 not stated): > 30 µg/mL
- MIC [6]: 3.5 µg/mL (≈ 6.03 µM)
- MIC (bacterial growth inhibition) ([3]; time not given): 3.5 µg/mL (≈ 6.03 µM)
- MIC [3, 13]: 5.5 µg/mL (≈ 9.47 µM)
- MBC ([7]; MRSA, read-out: MBC): 7 µg/mL
- MBC (kills bacteria) [11]: > 88 µg/mL

SMILES: COc1ccc2c3c([nH]c2c1)C(CC(CC1=NCCc2c1[nH]c1cc(OC)ccc21)c1ccc(C(F)(F)F)nc1)=NCC3 [GK585]
- MBC ([5]; S. aureus): > 146 µg/mL
- MIC (bacterial growth inhibition) ([2]; E. coli): No bacteriostatic or bactericidal activities were observed
- genotoxicity ([10]; at 12.5 and 25 μM): no genotoxicity
- genotoxicity ([10]; at 50 and 100 μM): interfered with testing protocols
- MIC [6]: 73.2 µg/mL (≈ 125 µM)
- MIC [3, 13]: 73.2 µg/mL (≈ 125 µM)
- MBC ([7]; MRSA, read-out: MBC): > 146 µg/mL
- MBC ([7]; MRSA, read-out: MRSA-MBC): > 250 µM

SMILES: COc1ccc2c3c([nH]c2c1)C(CC(CC1=NCCc2c1[nH]c1cc(OC)ccc21)c1c[nH]c2ccc(C(=O)O)cc12)=NCC3 [GK599.HCl]
- concentration at which activity is shown ([2]; E. coli): 50 µg/mL
- concentration at which activity is shown ([6]; MRSA): 12.5 µg/mL
- concentration at which activity is shown [3]: 12.5 µg/mL

SMILES: COc1ccc2c3c([nH]c2c1)C(CC(CC1=NCCc2c1[nH]c1cc(OC)ccc21)c1c[nH]c2ccc(C(=O)O)cc12)=NCC3 [GK599]
- concentration at which activity is shown ([2]; E. coli): 100 µg/mL
- concentration at which activity is shown [3]: 6.25 µg/mL

SMILES: COc1ccc2c3c([nH]c2c1)C(CC(CC1=NCCc2c1[nH]c1cc(OC)ccc21)c1c[nH]c2cccc([N+](=O)[O-])c12)=NCC3 [GK600]
- MIC (bacterial growth inhibition) ([2]; E. coli): 6.25 µg/mL (≈ 10.4 µM)
- MIC [2, 15]: 12.5 µg/mL (≈ 20.8 µM)
- MIC [6]: 2.75 µg/mL (≈ 4.58 µM)
- MIC (bacterial growth inhibition) ([3]; time not given): 3.5 µg/mL (≈ 5.83 µM)
- MIC [3, 13]: 3.1 µg/mL (≈ 5.16 µM)

SMILES: COc1ccc2c3c([nH]c2c1)C(C)=NCC3 [Harmaline, reference compound]
- MIC ([2]; ATCC25922, read-out: MIC (bacterial growth inhibition)): 707 µg/mL and 3300 µM
- MIC [3, 16]: 707 µg/mL and 3300 µM

SMILES: CN[C@H](CC(C)C)C(=O)N[C@H]1C(=O)N[C@@H](CC(N)=O)C(=O)N[C@H]2C(=O)N[C@H]3C(=O)N[C@H](C(=O)N[C@H](C(=O)O)c4cc(O)cc(O)c4-c4cc3ccc4O)[C@H](O)c3ccc(c(Cl)c3)Oc3cc2cc(c3O[C@@H]2O[C@H](CO)[C@@H](O)[C@H](O)[C@H]2O[C@H]2C[C@](C)(N)[C@H](O)[C@H](C)O2)Oc2ccc(cc2Cl)[C@H]1O [Vancomycin, reference compound]
- MBC [12]: > 100 µg/mL
- MBC [5]: 1.56 µg/mL (≈ 1.08 µM)
- MIC [8]: 3.12 µg/mL (≈ 2.15 µM)
- MIC [9]: 25 µg/mL (≈ 17.3 µM)
- MIC [6]: 1.56 µg/mL (≈ 1.08 µM)
- MIC [3, 16]: 1.56 µg/mL (≈ 1.08 µM)
- MBC [7]: 1.56 µg/mL
- MBC (kills bacteria) [11]: 6.25 µg/mL (≈ 4.31 µM)
